In PubChem BioAssay (NCI):
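The concentration for 50% growth inhibition is given as GI50. At the TGI there is no net growth.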

Legend:
Assay in all cases: inhibition of tumour cell growth, NCI panel, 384-well format
[1] = system: U251 glioblastoma
[2] = system: SW-620 colon
[3] = system: HS 578T breast
[4] = system: MDA-MB-435 melanoma
[5] = system: M14 melanoma
[6] = system: NCI-H522 lung
[7] = system: HL-60(TB) leukemia
[8] = system: SF-268 CNS
[9] = system: HOP-92 NSCLC
[10] = system: 786-0 renal
[11] = system: SK-MEL-28 melanoma
[12] = system: NCI-H226 lung
[13] = system: NCI-H322M lung
[14] = system: SK-MEL-2 melanoma
[15] = system: HCT-116 colon
[16] = system: MCF7 breast
[17] = system: COLO 205 colon
[18] = system: EKVX NSCLC
[19] = system: NCI-H23 lung
[20] = system: SK-MEL-5 melanoma
[21] = system: LOX IMVI melanoma
[22] = system: HT29 colon
[23] = system: MOLT-4 leukemia
[24] = system: ACHN renal
[25] = system: CAKI-1 renal
[26] = system: HOP-62 NSCLC
[27] = system: A549 NSCLC
[28] = system: SK-OV-3 ovarian
[29] = system: BT-549 breast
[30] = system: UACC-257 melanoma
[31] = system: DU-145 prostate
[32] = system: OVCAR-8 ovarian
[33] = system: RPMI-8226 leukemia
[34] = system: A498 renal
[35] = system: SF-539 CNS
[36] = system: SNB-75 CNS
[37] = system: SN12C renal
[38] = system: UACC-62 melanoma
[39] = system: IGROV1 ovarian
[40] = system: HCC-2998 colon
[41] = system: PC-3 prostate
[42] = system: OVCAR-3 ovarian
[43] = system: K-562 leukemia
[44] = system: RXF 393 renal
[45] = system: NCI-H460 NSCLC
[46] = system: SF-295 CNS
[47] = system: HCT-15 colon
[48] = system: NCI/ADR-RES ovarian
[49] = system: KM12 colon
[50] = system: TK-10 renal
[51] = system: SNB-19 CNS
[52] = system: CCRF-CEM leukemia
[53] = system: MALME-3M melanoma
[54] = system: OVCAR-4 ovarian
[55] = system: MDA-MB-468 breast

Which GI50 [1] does the source give for CN(C)c1ccc(N)c2ccccc12 here?
Its GI50 is 7.75 µM.

What about the TGI [1] of the same molecule?
The TGI was 20.4 µM.

And the GI50 [2]?
Its GI50 is 1.64 µM.

And the TGI [2]?
Its TGI is 3.11 µM.

And the GI50 [3]?
The GI50 was 2.44 µM.

And the TGI [3]?
The TGI was 6.72 µM.

What about the GI50 [4] of the same molecule?
Its GI50 is 1.36 µM.

And the TGI [4]?
Its TGI is 2.65 µM.

And the GI50 [5]?
The GI50 was 1.5 µM.

What about the TGI [5] of the same molecule?
Its TGI is 2.84 µM.

And the GI50 [6]?
The GI50 was 2.77 µM.

What about the TGI [6] of the same molecule?
Its TGI is 11.6 µM.

And the GI50 [7]?
The GI50 was 0.814 µM.

And the TGI [7]?
Its TGI is 2.1 µM.

And the GI50 [8]?
The GI50 was 8.32 µM.

And the TGI [8]?
The TGI was 20.5 µM.

What about the GI50 [9] of the same molecule?
The GI50 was 5.85 µM.

What about the TGI [9] of the same molecule?
Its TGI is 19.5 µM.

What about the GI50 [10] of the same molecule?
The GI50 was 2.16 µM.

What about the TGI [10] of the same molecule?
Its TGI is 9.6 µM.

What about the GI50 [11] of the same molecule?
The GI50 was 1.76 µM.

What about the TGI [11] of the same molecule?
The TGI was 3.71 µM.

And the GI50 [12]?
The GI50 was 1.28 µM.

What about the TGI [12] of the same molecule?
Its TGI is 7.63 µM.

What about the GI50 [13] of the same molecule?
Its GI50 is 2.1 µM.

And the TGI [13]?
Its TGI is 3.86 µM.

And the GI50 [14]?
The GI50 was 1.26 µM.

And the TGI [14]?
The TGI was 2.77 µM.

And the GI50 [15]?
Its GI50 is 2.2 µM.

What about the TGI [15] of the same molecule?
The TGI was 5.93 µM.

And the GI50 [16]?
Its GI50 is 1.34 µM.

And the TGI [16]?
The TGI was 2.64 µM.

What about the GI50 [17] of the same molecule?
Its GI50 is 2.09 µM.

And the TGI [17]?
Its TGI is 4.21 µM.

And the GI50 [18]?
Its GI50 is 1.7 µM.

And the TGI [18]?
The TGI was 8.1 µM.

What about the GI50 [19] of the same molecule?
The GI50 was 1.47 µM.

What about the TGI [19] of the same molecule?
Its TGI is 2.88 µM.

What about the GI50 [20] of the same molecule?
Its GI50 is 0.146 µM.

And the TGI [20]?
Its TGI is 1.61 µM.

What about the GI50 [21] of the same molecule?
The GI50 was 0.217 µM.

What about the TGI [21] of the same molecule?
The TGI was 1.56 µM.

And the GI50 [22]?
The GI50 was 4.55 µM.

What about the TGI [22] of the same molecule?
The TGI was 16.4 µM.

What about the GI50 [23] of the same molecule?
Its GI50 is 0.802 µM.

And the TGI [23]?
The TGI was 2.48 µM.

And the GI50 [24]?
The GI50 was 12.1 µM.

And the TGI [24]?
Its TGI is 24.6 µM.

What about the GI50 [25] of the same molecule?
The GI50 was 13.1 µM.

And the TGI [25]?
The TGI was 26 µM.

And the GI50 [26]?
The GI50 was 1.59 µM.

And the TGI [26]?
Its TGI is 2.98 µM.

What about the GI50 [27] of the same molecule?
The GI50 was 4.16 µM.

And the TGI [27]?
The TGI was 16.6 µM.

What about the GI50 [28] of the same molecule?
The GI50 was 10.1 µM.

What about the TGI [28] of the same molecule?
Its TGI is 21.8 µM.

What about the GI50 [29] of the same molecule?
The GI50 was 1.5 µM.

And the TGI [29]?
The TGI was 2.84 µM.

What about the GI50 [30] of the same molecule?
The GI50 was 1.04 µM.

What about the TGI [30] of the same molecule?
Its TGI is 2.22 µM.

What about the GI50 [31] of the same molecule?
Its GI50 is 1.41 µM.

What about the TGI [31] of the same molecule?
The TGI was 2.73 µM.

And the GI50 [32]?
Its GI50 is 5.33 µM.

What about the TGI [32] of the same molecule?
Its TGI is 17.5 µM.

And the GI50 [33]?
Its GI50 is 1.83 µM.

What about the TGI [33] of the same molecule?
The TGI was 5.98 µM.

And the GI50 [34]?
The GI50 was 11.9 µM.

And the TGI [34]?
Its TGI is 24.3 µM.

And the GI50 [35]?
The GI50 was 1.75 µM.

And the TGI [35]?
Its TGI is 3.3 µM.

And the GI50 [36]?
The GI50 was 2.39 µM.

And the TGI [36]?
The TGI was 7.53 µM.

And the GI50 [37]?
Its GI50 is 1.76 µM.

What about the TGI [37] of the same molecule?
Its TGI is 3.19 µM.

And the GI50 [38]?
The GI50 was 1.24 µM.

What about the TGI [38] of the same molecule?
Its TGI is 2.5 µM.

What about the GI50 [39] of the same molecule?
Its GI50 is 1.86 µM.

And the TGI [39]?
Its TGI is 16.1 µM.

What about the GI50 [40] of the same molecule?
Its GI50 is 2.4 µM.

And the TGI [40]?
The TGI was 16.2 µM.

And the GI50 [41]?
The GI50 was 1.34 µM.

What about the TGI [41] of the same molecule?
The TGI was 6.24 µM.

And the GI50 [42]?
Its GI50 is 1.16 µM.

What about the TGI [42] of the same molecule?
The TGI was 2.52 µM.

And the GI50 [43]?
Its GI50 is 18.4 µM.

What about the TGI [43] of the same molecule?
The TGI was 32.4 µM.

And the GI50 [44]?
Its GI50 is 2.68 µM.

What about the TGI [44] of the same molecule?
The TGI was 10.5 µM.

And the GI50 [45]?
Its GI50 is 2.93 µM.

And the TGI [45]?
Its TGI is 10.4 µM.

What about the GI50 [46] of the same molecule?
The GI50 was 7.17 µM.

And the TGI [46]?
The TGI was 20.1 µM.

And the GI50 [47]?
The GI50 was 1.47 µM.

What about the TGI [47] of the same molecule?
The TGI was 3.54 µM.

And the GI50 [48]?
The GI50 was 11.8 µM.

What about the TGI [48] of the same molecule?
Its TGI is 24.6 µM.

What about the GI50 [49] of the same molecule?
Its GI50 is 3.65 µM.

And the TGI [49]?
The TGI was 14.8 µM.

And the GI50 [50]?
The GI50 was 11.3 µM.

What about the TGI [50] of the same molecule?
The TGI was 23.5 µM.

And the GI50 [51]?
The GI50 was 3.4 µM.

And the TGI [51]?
The TGI was 11.7 µM.

And the GI50 [52]?
Its GI50 is 4.65 µM.

What about the TGI [52] of the same molecule?
The TGI was 19.1 µM.

And the GI50 [53]?
Its GI50 is 0.448 µM.

And the TGI [53]?
Its TGI is 1.68 µM.

And the GI50 [54]?
The GI50 was 0.397 µM.

What about the TGI [54] of the same molecule?
Its TGI is 3.65 µM.

What about the GI50 [55] of the same molecule?
Its GI50 is 0.591 µM.

And the TGI [55]?
Its TGI is 4.61 µM.
